Results as given in patent publication US7186735B2, “Acylated arylcycloalkylamines and their use as pharmaceuticals” (Sanofi-Aventis Deutschland GmbH, priority 2002, dated 2007).

Target: eNOS promoter
Assay: Activation of eNOS transcription (eNOS promoter-luciferase reporter gene assay)
Type: cell-based
Conditions: human endothelial cell line stably transfected with eNOS promoter-luciferase construct; 18 h incubation; EC50 determined graphically from TIR vs concentration; read-out: eNOS transcription induction ratios EC50
Method: Determination of Activation of eNOS Transcription
Activation of eNOS transcription was determined as described in detail in Li et al., “Activation of protein kinase C alpha and/or epsilon enhances transcription of the human endothelial nitric oxide synthase gene”, Mol. Pharmacol. 53 (1998) 630, the content of which is incorporated herein by reference.
Briefly, a 3.5 kB long fragment 5′ of the starting codon of the eNOS gene was cloned, sequenced and cloned in firefly luciferase expression plasmids to monitor activation of the eNOS promoter by reporter gene activity. A human endothelial cell line stable transfected and expressing this promoter-reporter construct was used for compound testing. Cells were incubated for 18 h with compounds.
All compounds were dissolved in sterile dimethyl sulfoxide (DMSO). A final concentration of 0.5% DMSO in complete medium was allowed. Induction of reporter gene expression in these cells was measured using a standard luciferase assay system (Promega, Cat. No E150) according to the manufacturer's instructions. Luciferase induction in cells incubated with compounds were compared to those incubated with solvent alone. The ratio of both activities (transcription induction ratio, TIR) was plotted as a function of compound concentration. Typically, TIR values started at low concentrations at a ratio of 1, indicating no compound effect, and extended up to a maximum TIR value TIR(max) which indicates the increase of the eNOS transcription. EC50 values of transcription induction ratios as a function of compound concentration were determined graphically.

SMILES	EC50
Cc1nc(C)c(C(=O)N[C@@H]2C[C@H]2c2ccccc2)o1 (racemic) [Example 1]	18000 nM
Cc1nc(C2CC2)sc1C(=O)N[C@@H]1C[C@H]1c1ccccc1 (racemic) [Example 3]	300 nM
Cc1ccc(C(=O)N[C@@H]2C[C@H]2c2ccccc2)c(C)n1 (racemic) [Example 4]	330 nM
Cc1nc(N)c(C(=O)N[C@@H]2C[C@H]2c2ccccc2)nc1C (racemic) [Example 5]	160 nM
Cc1ccc(C(=O)N[C@@H]2C[C@H]2c2ccccc2)cc1NS(C)(=O)=O (racemic) [Example 7]	1800 nM
CS(=O)(=O)Nc1cccc(C(=O)N[C@@H]2C[C@H]2c2ccccc2)c1 (racemic) [Example 8]	2000 nM
O=C(N[C@@H]1C[C@H]1c1ccccc1)c1ccc(N2CCOCC2)nc1 (racemic) [Example 9]	3500 nM
O=C(N[C@@H]1C[C@H]1c1ccccc1)c1cnc2c(c1)CCCC2 (racemic) [Example 10]	5100 nM
COc1ccc(C(=O)N[C@@H]2C[C@H]2c2ccccc2)cn1 (racemic) [Example 11]	780 nM
Cc1ncc(C(=O)N[C@@H]2C[C@H]2c2ccccc2)s1 (racemic) [Example 12]	10000 nM
O=C(N[C@@H]1C[C@H]1c1ccccc1)c1cccc(N2CCCC2)c1 (racemic) [Example 13]	1300 nM
O=C(N[C@@H]1C[C@H]1c1ccccc1)c1cccc(N2CCCCC2)c1 (racemic) [Example 14]	11000 nM
CN1CCN(c2cccc(C(=O)N[C@@H]3C[C@H]3c3ccccc3)c2)CC1 (racemic) [Example 15]	59000 nM
O=C(N[C@@H]1C[C@H]1c1ccccc1)c1cccc(N2CCOCC2)c1 (racemic) [Example 16]	32000 nM
Cc1cc(C(=O)N[C@@H]2C[C@H]2c2ccccc2)c(C)n1Cc1cccs1 (racemic) [Example 17]	< 10 nM
Cc1nc2ccc(C(=O)N[C@@H]3C[C@H]3c3ccccc3)cc2[nH]1 (racemic) [Example 18]	330 nM
CC(C)S(=O)(=O)c1csc(C(=O)N[C@@H]2C[C@H]2c2ccccc2)c1Cl (racemic) [Example 19]	450 nM
Cc1c(C(=O)N[C@@H]2C[C@H]2c2ccccc2)cnn1-c1ccccc1 (racemic) [Example 20]	110 nM
O=C(N[C@@H]1C[C@H]1c1ccccc1)c1cnn(-c2ccccc2)c1C(F)(F)F (racemic) [Example 21]	240 nM

SMILES	EC50
Cc1cc(C(=O)N[C@@H]2C[C@H]2c2ccccc2)c(C)n1Cc1ccncc1 (racemic) [Example 22]	24000 nM
Cc1nc(C)c(C(=O)N[C@@H]2C[C@H]2c2ccccc2)s1 (racemic) [Example 23]	600 nM
Nc1ncccc1C(=O)N[C@@H]1C[C@H]1c1ccccc1 (racemic) [Example 24]	950 nM
Cc1ccc(C(=O)N[C@@H]2C[C@H]2c2ccccc2)cn1 (racemic) [Example 25]	1100 nM
Cc1ccc(C(=O)N[C@@H]2C[C@H]2c2ccccc2)c(Cl)n1 (racemic) [Example 26]	290 nM
COCc1ccc(C(=O)N[C@@H]2C[C@H]2c2ccccc2)cn1 (racemic) [Example 27]	4300 nM
Nc1nccnc1C(=O)N[C@@H]1C[C@H]1c1ccccc1 (racemic) [Example 28]	430 nM
O=C(N[C@@H]1C[C@H]1c1ccccc1)c1ccc2cc[nH]c2c1 (racemic) [Example 29]	100 nM
O=C(N[C@@H]1C[C@H]1c1ccccc1)c1ccc2[nH]ccc2c1 (racemic) [Example 30]	100 nM
O=C(NC1CC1c1ccccc1)c1cccc2[nH]ccc12 (racemic) [Example 31]	470 nM
CN(C)c1cccc(C(=O)NC2CC2c2ccccc2)c1 (racemic) [Example 32]	1800 nM
Cc1cc(C)c(C(=O)NC2CC2c2ccccc2)c(N)n1 (racemic) [Example 33]	12000 nM
O=C(NC1CC1c1ccccc1)c1cccc(Cl)c1Cl (racemic) [Example 34]	1200 nM
O=C(NC1CC1c1ccccc1)c1ccc(F)cc1F (racemic) [Example 36]	310 nM
Cc1ccc(C(=O)NC2CC2c2ccccc2)s1 (racemic) [Example 37]	260 nM
O=C(NC1CC1c1ccccc1)c1ccc(Cl)s1 (racemic) [Example 38]	230 nM
O=C(N[C@@H]1C[C@H]1c1ccccc1)c1ccc(F)cc1 (relative stereo) [Example 39, 4-fluoro-N-(trans-2-phenylcyclopropyl)benzamide]	190 nM
O=C(N[C@@H]1C[C@H]1c1ccccc1)c1ccc(F)cc1 (relative stereo) [Example 40, 4-Fluoro-N-(trans-2-phenylcyclopropyl)benzamide]	1500 nM
O=C(N[C@@H]1C[C@H]1c1ccccc1)c1ccc(F)cc1 (relative stereo) [Example 41, 4-Fluoro-N-(trans-2-phenylcyclopropyl)benzamide]	180 nM
